Test results reported in patent publication US10428056B2, “Heterocyclic compound” (Takeda Pharmaceutical Company Limited, priority 2015, dated 2019).
Each block holds one compound with its values, some of them ahead of it.

How the values were obtained:
[1] = molecular target: T1, human M1 receptor (hCHRM1) (Homo sapiens, UniProt P11229); experiment: Measurement of M1 receptor positive allosteric modulator (M1PAM) activity, Ca fluorescence by FDSS/μ cell (Experimental Example 2); format: cell-based; settings: inflection point of concentration-dependent curve, CHO-K1 cells expressing hCHRM1, acetylcholine at EC20 (0.8-1.0 nM), read-out: IP value
T1 construct: expressed in transfected cells; host or cells: CHO-K1
T1 sequence (P11229 1-460): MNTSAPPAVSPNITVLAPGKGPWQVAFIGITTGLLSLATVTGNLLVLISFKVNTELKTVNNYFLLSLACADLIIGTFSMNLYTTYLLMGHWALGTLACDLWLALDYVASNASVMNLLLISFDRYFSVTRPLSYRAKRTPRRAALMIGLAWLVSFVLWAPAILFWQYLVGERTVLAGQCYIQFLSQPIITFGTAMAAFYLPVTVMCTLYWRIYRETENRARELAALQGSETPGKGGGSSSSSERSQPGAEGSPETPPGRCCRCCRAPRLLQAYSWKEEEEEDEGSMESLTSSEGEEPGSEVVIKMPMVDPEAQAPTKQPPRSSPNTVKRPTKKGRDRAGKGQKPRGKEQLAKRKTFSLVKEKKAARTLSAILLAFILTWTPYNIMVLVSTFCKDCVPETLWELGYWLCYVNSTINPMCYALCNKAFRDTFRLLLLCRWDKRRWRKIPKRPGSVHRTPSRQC
Protocol: (§1) Measurement of M1 Receptor Positive Allosteric Modulator (M1PAM) Activity
(§2) The activity of a test compound in the presence of acetylcholine at EC20 concentration (final concentration 0.8-1.0 nM), which affords an action corresponding to about 20% of the maximum activity, was measured as PAM activity. The method is as follows. CHO-K1 cells stably expressing a human M1 receptor (hCHRM1) were plated on a 384-well black clear bottom plate (BD Falcon) at 5,000 cells/well, and cultured in an incubator at 37° C., 5% CO2 for 1 day. […] A test compound prepared by diluting with assay buffer containing 3.2-4.0 nM acetylcholine was added at 10 μL/well, and the fluorescence was measured by FDSS/μ cell (Hamamatsu Photonics K.K.) for 1 min every 1 second. With the definition that the amount of change in the fluorescence on addition of acetylcholine (final concentration 1 μM) is 100% and that on addition of DMSO instead of a test compound is 0%, the activity (%) of the test compound was calculated, and the inflection point in the concentration-dependent curve of the test compound was calculated as IP values.

[2] = molecular target: T1, human M1 receptor (hCHRM1); experiment: Measurement of M1 receptor positive allosteric modulator (M1PAM) activity, Ca fluorescence by FLIPRtetra (Experimental Example 1); format: cell-based; settings: inflection point of concentration-dependent curve, CHO-K1 cells expressing hCHRM1, acetylcholine at EC20 (0.8-1.0 nM), read-out: IP value
Protocol: as §1
as §2, with “FLIPRtetra (Molecular Devices)” for “FDSS/μ cell (Hamamatsu Photonics K.K.)”

[3] = test system: Scopolamine-induced memory deficits models; experiment: Novel object recognition test (Experimental Example 4); format: in vivo, male Long-Evans rats; settings: 10 mg/kg oral single dose, scopolamine 0.1 mg/kg s.c.; retention trial 4 hr after acquisition; mean±standard error
Protocol: Novel Object Recognition Test Novel object recognition test is comprised of two trials called the acquisition and the retention trials. Scopolamine-induced memory deficits models were used for the test, and animals used were male Long-Evans rats. On the day before the test, for acclimation, the rats were allowed to freely move about the test box (40×40×50 cm) for 10 minutes. On the test day, the rats were acclimated to the test room for about 1 hr prior to the test. The test compounds were orally administered to the rats in a single dose a given time before the acquisition trial. For induction of learning and memory deficits, scopolamine (0.1 mg/kg) was subcutaneously administered into the rats 30 min before the acquisition trial. For the acquisition trial, two identical objects (A1, A2) were placed in the test box. The rats were put in the test box for 3 min, and the duration exploring each object was measured. The retention trial was performed 4 hr after the acquisition trial. […] The duration for exploring each object in the acquisition trial and the retention trial was measured, and the exploration rate of novel object was calculated. The exploration rate of novel object was expressed as (the duration exploring the novel object)/[(the duration exploring the novel object)+(the duration exploring the familiar object)]×100(%) at mean±standard error.

EC50 [1]: 6.8 nM
Structure (SMILES): Cc1c(Cc2ccc(-n3cccn3)nc2)cc2c(c1Cl)OCN([C@H]1CCC[C@@H]1O)C2=O (single isomer, unassigned) [Example 97, 8-chloro-3-(trans-2-hydroxycyclopentyl)-7-methyl-6-((6-(1H-pyrazol-1-yl)pyridin-3-yl)methyl)-2,3-dihydro-4H-1,3-benzoxazin-4-one]

EC50 [2]: 27 nM
Structure (SMILES): Cc1cc2c(cc1Cc1ccc(Cl)nc1)C(=O)N([C@H]1CCCC[C@@H]1O)CO2 (relative stereo) [Example 62, 6-((6-chloropyridin-3-yl)methyl)-3-(trans-2-hydroxycyclohexyl)-7-methyl-2,3-dihydro-4H-1,3-benzoxazin-4-one]

Structure (SMILES): Cc1ccc(Cc2cc3c(cc2C)OCN([C@H]2CCCC[C@@H]2O)C3=O)cn1 (single isomer, unassigned) [Example 28, 3-(trans-2-hydroxycyclohexyl)-7-methyl-6-((6-methylpyridin-3-yl)methyl)-2,3-dihydro-4H-1,3-benzoxazin-4-one]
exploration rate of novel object (%) [3]: 56.0±2.2%
